Our source for the inhibition values is PubChem BioAssay AID699 (NMMLSC, 2007).

The assay concerns the target fMet-Leu-Phe receptor (Homo sapiens) (UniProt P21462). Briefly: FPR antagonists blocking calcium signaling, confirmation, cell-based, calcium response (AID 699). The note with it: FPR1 cells, ligand-induced calcium response inhibition; active compounds read high; concentration not given here.

Active and inactive are the calls of the source. The rule behind the calls is not given here.

fMet-Leu-Phe receptor (Homo sapiens), sequence (P21462 whole entry, looked up): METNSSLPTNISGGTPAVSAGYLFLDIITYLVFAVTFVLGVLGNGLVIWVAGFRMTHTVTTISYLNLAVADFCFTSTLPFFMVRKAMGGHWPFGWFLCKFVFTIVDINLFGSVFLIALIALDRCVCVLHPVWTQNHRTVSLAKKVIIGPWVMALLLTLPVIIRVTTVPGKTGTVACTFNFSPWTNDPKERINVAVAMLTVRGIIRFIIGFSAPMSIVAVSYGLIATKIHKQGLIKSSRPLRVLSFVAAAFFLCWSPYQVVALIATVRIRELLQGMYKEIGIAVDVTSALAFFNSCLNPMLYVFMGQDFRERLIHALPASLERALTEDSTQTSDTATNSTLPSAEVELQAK

In the case of `CC(C)CN(CC(C)C)C(=O)CS(=O)(=O)Cc1ccccc1`, the inhibition – broadly, the drop in the measured response relative to a control, in per cent – was -0% (inactive).
Then `CCCOc1ccc(C2C(C(=O)c3ccc(C)o3)=C(O)C(=O)N2CCCn2ccnc2)cc1` (centres undefined), with 21.4% (inactive); and `C=CCOc1ccc(C2C(C(=O)c3ccco3)=C(O)C(=O)N2Cc2cccnc2)cc1` (centres undefined), with -0% (inactive); and `O=C(C1=C(O)C(=O)N(Cc2ccccc2)C1c1ccncc1)c1ccco1` (centres undefined), with -0% (inactive).
Under `COCCCN1C(=O)C(O)=C(C(=O)c2ccco2)C1c1ccc(Br)cc1` (centres undefined) stands 39.8% (inactive).
Under `COCCCN1C(=O)C(O)=C(C(=O)c2ccco2)C1c1ccccc1` (centres undefined) stands 56.7% (inactive); under `CCC(=O)Nc1c(C#N)c2nc3ccccc3nc2n1-c1ccccc1C`, 91.7%; under `O=C1C(C23CC4CC(CC(C4)C2)C3)C(=O)N(c2ccccc2)N1c1ccccc1`, -0% (inactive).
With `CCOc1ccc(C2C(C(=O)c3ccco3)=C(O)C(=O)N2CCCn2ccnc2)cc1` (centres undefined), the inhibition is 23.6% (inactive).
Under `COc1ccc(OC)c(C2C(C(=O)c3cccs3)=C(O)C(=O)N2c2cc(C)on2)c1` (centres undefined) stands 93.8%; under `COC(=O)c1[nH]c(C)c(/C(O)=C2\C(=O)C(=O)N(CCCN3CCOCC3)C2c2ccccn2)c1C` (centres undefined), 26.5% (inactive).
As for `CCCCC1C(=O)N(c2ccccc2)N(c2ccccc2)C1=O`, the inhibition is 96.9%.
Under `Cc1[nH]n2c(=O)c(C#N)c(-c3ccccc3)nc2c1-c1ccccc1` stands 104%; under `O=C(NC1CCCC1)c1sc(=S)n2c1[nH]c(=O)c1ccccc12`, 97%; under `COc1cc(C2C(C(=O)c3ccco3)=C(O)C(=O)N2CCc2ccccc2)ccc1O` (centres undefined), 98.8%.
Then `Cc1c(C(=O)NC2CCCc3ccccc32)oc2ccc(S(=O)(=O)N3CCOCC3)cc12` (centres undefined), with 66.4% (inactive).
Then `Cc1ccsc1C1C2=C(CC(C)(C)CC2=O)Nc2ncnn21` (centres undefined), with -0% (inactive); and `Cc1[nH]n2c(=O)c3c(nc2c1-c1ccc(Cl)cc1)CCC3`, with -0% (inactive).
For the compound `COc1ccccc1C1/C(=C(/O)c2ccccc2)C(=O)C(=O)N1CC(C)C` (centres undefined), the inhibition is 99%.
Then `COCCN1C(=O)C(O)=C(C(=O)c2cccs2)C1c1ccccc1` (centres undefined), with 95.1%; and `COCCCN1C(=O)C(O)=C(C(=O)c2ccco2)C1c1cccc(Br)c1` (centres undefined), with 90.9%; and `COC(=O)c1[nH]c(C)c(/C(O)=C2\C(=O)C(=O)N(CCN3CCOCC3)C2c2cccs2)c1C` (centres undefined), with 93.9%.
Under `COCCCN1C(=O)C(=O)/C(=C(/O)c2ccccc2)C1c1ccc2c(c1)OCO2` (centres undefined) stands 101%.
Under `CCOc1cccc(/C(O)=C2/C(=O)C(=O)N(CCOC)C2c2ccc(C)o2)c1` (centres undefined) stands 90.5%; under `CCCOc1ccc(C2C(C(=O)c3ccco3)=C(O)C(=O)N2CCCn2ccnc2)cc1` (centres undefined), 98.4%.
As to `Cc1ccc(C2/C(=C(/O)c3ccc(Cl)cc3)C(=O)C(=O)N2CC2CCCO2)o1` (centres undefined), the inhibition is 15.5% (inactive).
Take `COc1ccc(Cl)cc1-n1c(=S)sc2c(=O)[nH]c(SCC(=O)NCC3CCCO3)nc21` (centres undefined): the inhibition is 100%.
Then `CC1(C)S[C@@H]2[C@H](NC(=O)Cc3ccccc3)C(=O)N2[C@H]1C(=O)O`, with 79.1% (inactive).
Then `O=C1C(CCS(=O)c2ccccc2)C(=O)N(c2ccccc2)N1c1ccccc1` (centres undefined), with -0% (inactive).
Under `COc1ccc(OC)c(C2/C(=C(/O)c3ccccc3)C(=O)C(=O)N2Cc2ccco2)c1` (centres undefined) stands 38.1% (inactive); under `O=C(C1=C(O)C(=O)N(Cc2ccccc2)C1c1ccco1)c1ccco1` (centres undefined), 56.9% (inactive).
On to `C=CCOc1cccc(C2C(C(=O)c3ccco3)=C(O)C(=O)N2CCN2CCOCC2)c1` (centres undefined), for which the inhibition is 102%.
Under `COc1ccccc1-c1c(C)oc2cc(OC(=O)c3ccco3)ccc2c1=O` stands 83.2% (inactive); under `COc1ccccc1Oc1c(C)oc2cc(OC(=O)c3ccco3)ccc2c1=O`, 93.7%.
